Here are results for 14 compounds from patent publication US20200291018A1, “TAM KINASE INHIBITORS” (SYROS PHARMACEUTICALS, INC., priority 2017, published 2020).

One assay has as its target T1, MERTK (Homo sapiens, UniProt Q12866).
T1 sequence (Q12866 21-999): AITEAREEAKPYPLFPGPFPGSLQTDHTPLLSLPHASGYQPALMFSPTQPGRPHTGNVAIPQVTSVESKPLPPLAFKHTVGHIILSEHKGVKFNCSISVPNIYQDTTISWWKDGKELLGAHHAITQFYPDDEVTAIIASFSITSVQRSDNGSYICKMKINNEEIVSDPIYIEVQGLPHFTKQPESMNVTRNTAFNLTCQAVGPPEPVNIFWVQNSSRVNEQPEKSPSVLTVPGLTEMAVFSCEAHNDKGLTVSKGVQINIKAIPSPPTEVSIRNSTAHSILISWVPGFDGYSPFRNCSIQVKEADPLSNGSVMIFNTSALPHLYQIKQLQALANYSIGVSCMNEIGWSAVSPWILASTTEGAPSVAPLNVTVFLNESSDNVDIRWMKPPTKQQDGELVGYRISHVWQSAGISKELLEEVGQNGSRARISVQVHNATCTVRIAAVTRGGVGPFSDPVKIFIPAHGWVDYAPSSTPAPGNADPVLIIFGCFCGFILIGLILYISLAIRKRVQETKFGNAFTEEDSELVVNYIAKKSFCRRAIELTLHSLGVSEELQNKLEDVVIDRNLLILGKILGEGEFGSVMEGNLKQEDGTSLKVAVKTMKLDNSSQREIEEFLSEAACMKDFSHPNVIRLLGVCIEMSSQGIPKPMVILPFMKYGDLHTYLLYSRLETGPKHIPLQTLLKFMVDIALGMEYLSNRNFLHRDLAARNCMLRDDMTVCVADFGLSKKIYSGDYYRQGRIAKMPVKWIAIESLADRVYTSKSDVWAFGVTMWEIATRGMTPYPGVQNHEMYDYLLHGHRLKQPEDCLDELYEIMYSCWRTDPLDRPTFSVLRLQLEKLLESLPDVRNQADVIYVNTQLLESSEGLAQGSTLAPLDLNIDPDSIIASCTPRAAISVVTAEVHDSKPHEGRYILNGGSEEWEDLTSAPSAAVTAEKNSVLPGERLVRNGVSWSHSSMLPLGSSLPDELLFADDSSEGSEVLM
In words: TR-FRET kinase activity assay, MERTK. Format: biochemical. Conditions: for IC50: TR-FRET activity assay, ATP at Km, 60 minutes, read-out: Mer IC50; for Mer/Flt3 ratio (FLT3 IC50/Mer IC50): ratio calculated as FLT3 IC50/Mer IC50. The procedure, abridged:
(§1)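 Enzyme, fluorescent-labeled peptide substrate and compound were mixed in 50 mM HEPES pH 7.5, 10 mM MgCl2, 1 mM EGTA, 0.01% Brij 35, 1 mM DTT at RT; ATP at each enzyme's Km started the reaction. After 60 min, EDTA quench and Eu-anti-phosphotyrosine-site antibody (30 min, dark); TR-FRET read, IC50 derived.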

Another assay deals with T2, TYRO3 (Homo sapiens, UniProt Q06418).
T2 sequence (Q06418 41-890): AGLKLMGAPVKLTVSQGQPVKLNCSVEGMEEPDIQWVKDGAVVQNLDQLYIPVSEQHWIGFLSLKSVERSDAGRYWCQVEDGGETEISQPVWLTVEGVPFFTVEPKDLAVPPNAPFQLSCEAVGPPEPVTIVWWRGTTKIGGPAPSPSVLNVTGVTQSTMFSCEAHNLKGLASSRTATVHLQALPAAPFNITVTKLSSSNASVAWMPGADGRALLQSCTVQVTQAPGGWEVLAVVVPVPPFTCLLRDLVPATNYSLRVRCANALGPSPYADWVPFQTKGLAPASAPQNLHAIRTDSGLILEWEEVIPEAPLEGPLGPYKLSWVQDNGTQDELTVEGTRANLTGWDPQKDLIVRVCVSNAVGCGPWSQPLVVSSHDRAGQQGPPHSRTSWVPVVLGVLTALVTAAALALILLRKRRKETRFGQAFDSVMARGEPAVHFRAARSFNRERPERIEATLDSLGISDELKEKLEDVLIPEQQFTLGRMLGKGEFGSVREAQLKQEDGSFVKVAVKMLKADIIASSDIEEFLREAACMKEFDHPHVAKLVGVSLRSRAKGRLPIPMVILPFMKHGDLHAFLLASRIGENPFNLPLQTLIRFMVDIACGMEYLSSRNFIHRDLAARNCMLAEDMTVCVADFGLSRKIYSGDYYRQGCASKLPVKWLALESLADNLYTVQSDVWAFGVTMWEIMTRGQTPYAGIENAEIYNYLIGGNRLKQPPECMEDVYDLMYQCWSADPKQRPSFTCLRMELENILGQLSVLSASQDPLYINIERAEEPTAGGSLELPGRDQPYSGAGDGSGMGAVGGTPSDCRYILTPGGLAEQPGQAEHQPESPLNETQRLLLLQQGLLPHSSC
In words: TR-FRET kinase activity assay, TYRO3. Format: biochemical. Conditions: ATP at Km, 60 minutes. In outline:
as §1
Background: In TR-FRET formats the signal depends on donor and acceptor labels being close together.

With `COCCN1C(C)(C)CC(Oc2ncc([C@H]3CC[C@H](O)CC3)c3nc(N[C@@H](C)CC#N)ncc23)CC1(C)C` [Compound 376], at MERTK, the IC50 (commonly the concentration needed to halve the response being measured) is no more than 100 nM and the “Mer/Flt3 ratio (FLT3 IC50/Mer IC50)” value is reported as “+++ (a ratio of >100)”. The half-maximal inhibitory concentration (IC50) against TYRO3 was no more than 100 nM.

Regarding `COCC(=O)N1C(C)(C)CC(Oc2ncc([C@H]3CC[C@H](O)CC3)c3nc(N[C@@H](C)CC(F)(F)F)ncc23)CC1(C)C` [Compound 377], at MERTK, the IC50 was no more than 100 nM and the “Mer/Flt3 ratio (FLT3 IC50/Mer IC50)” value is “+++ (a ratio of >100)”. This compound displayed a 50% inhibitory concentration (IC50) at TYRO3 of 100 to 1000 nM.

As to `C[C@@H](CC(F)(F)F)Nc1ncc2c(OC3CCN([C@@H]4CCOC4)CC3)ncc([C@H]3CC[C@H](O)CC3)c2n1` [Compound 378], the IC50 at MERTK and against TYRO3 was no more than 100 nM throughout. The “Mer/Flt3 ratio (FLT3 IC50/Mer IC50)” value on MERTK is reported as “+++ (a ratio of >100)”.

On to `COCCN1C(C)(C)CC(Oc2ncc([C@H]3CC[C@H](O)CC3)c3nc(NC4(C)CC4)ncc23)CC1(C)C` [Compound 379], for which, at MERTK, the IC50 was no more than 100 nM and the “Mer/Flt3 ratio (FLT3 IC50/Mer IC50)” value is reported as “+++ (a ratio of >100)”. At TYRO3, the IC50 was no more than 100 nM.

Take `COCCN1C(C)(C)CC(Oc2ncc([C@H]3CC[C@H](O)CC3)c3nc(N[C@@H](C)CCO)ncc23)CC1(C)C` [Compound 380]: the IC50 on MERTK and against TYRO3 was no more than 100 nM each time. Further, on MERTK, the “Mer/Flt3 ratio (FLT3 IC50/Mer IC50)” value is given as “+++ (a ratio of >100)”.

With `COCCN1C(C)(C)CC(Oc2ncc([C@H]3CC[C@H](O)CC3)c3nc(N[C@@H](C)CF)ncc23)CC1(C)C` [Compound 381], on MERTK, the 50% inhibitory concentration (IC50) is no more than 100 nM and the “Mer/Flt3 ratio (FLT3 IC50/Mer IC50)” value is “+++ (a ratio of >100)”. This compound also yielded a half-maximal inhibitory concentration (IC50) at TYRO3 of no more than 100 nM.

As for `C[C@@H](CF)Nc1ncc2c(OC3CC(C)(C)N(C)C(C)(C)C3)ncc([C@H]3CC[C@H](O)CC3)c2n1` [Compound 382], the IC50 on MERTK and on TYRO3 was no more than 100 nM each time. In addition, the “Mer/Flt3 ratio (FLT3 IC50/Mer IC50)” value on MERTK is on record as “+++ (a ratio of >100)”.

In the case of `C[C@@H](CC(F)(F)F)Nc1ncc2c(OC3CCN([C@H]4CCOC4)CC3)ncc([C@H]3CC[C@H](O)CC3)c2n1` [Compound 383], at MERTK, the half-inhibitory concentration (IC50) was no more than 100 nM and the “Mer/Flt3 ratio (FLT3 IC50/Mer IC50)” value is given as “+++ (a ratio of >100)”. Also, the IC50 against TYRO3 is no more than 100 nM.

`COC[C@H](C)Nc1ncc2c(O[C@H]3CCN(C)C(C)(C)C3)ncc([C@H]3CC[C@H](O)CC3)c2n1` [Compound 384]: on MERTK, the 50% inhibitory concentration (IC50) was no more than 100 nM and the “Mer/Flt3 ratio (FLT3 IC50/Mer IC50)” value is recorded as “+++ (a ratio of >100)”. The same compound had a half-maximal inhibitory concentration (IC50) against TYRO3 of no more than 100 nM.

Consider `COC[C@H](C)Nc1ncc2c(O[C@@H]3CCN(C)C(C)(C)C3)ncc([C@H]3CC[C@H](O)CC3)c2n1` [Compound 385], for which the IC50 at MERTK and on TYRO3 was no more than 100 nM each time. Further, at MERTK, the “Mer/Flt3 ratio (FLT3 IC50/Mer IC50)” value is listed as “+++ (a ratio of >100)”.

As for `C[C@@H](CC(F)(F)F)Nc1ncc2c(OC3CC(C)(C)N(C)C(C)(C)C3)ncc([C@H]3CC[C@H](O)CC3)c2n1` [Compound 386], on MERTK, the 50% inhibitory concentration (IC50) is no more than 100 nM and the “Mer/Flt3 ratio (FLT3 IC50/Mer IC50)” value is on record as “+++ (a ratio of >100)”. On TYRO3, this compound showed an IC50 of no more than 100 nM.

In the case of `COC[C@H](C)Nc1ncc2c(OC3C[C@H](C)N(C)[C@@H](C)C3)ncc([C@H]3CC[C@H](O)CC3)c2n1` (stereo partly drawn) [Compound 387], at MERTK, the half-maximal inhibitory concentration (IC50) was no more than 100 nM and the “Mer/Flt3 ratio (FLT3 IC50/Mer IC50)” value is “+++ (a ratio of >100)”. For the same compound, the half-inhibitory concentration (IC50) on TYRO3 is no more than 100 nM.

For `COC[C@H](C)Nc1ncc2c(OC3C[C@@H](C)N(C)[C@H](C)C3)ncc([C@H]3CC[C@H](O)CC3)c2n1` (stereo partly drawn) [Compound 388], on MERTK, the half-maximal inhibitory concentration (IC50) was no more than 100 nM and the “Mer/Flt3 ratio (FLT3 IC50/Mer IC50)” value was “+++ (a ratio of >100)”. The compound also registered an IC50 on TYRO3 of no more than 100 nM.

Turning to `C[C@@H](CC(F)(F)F)Nc1ncc2c(OC3CCN(S(C)(=O)=O)CC3)ncc([C@H]3CC[C@H](O)CC3)c2n1` [Compound 389], on MERTK, the half-maximal inhibitory concentration (IC50) was no more than 100 nM and the “Mer/Flt3 ratio (FLT3 IC50/Mer IC50)” value is on record as “+++ (a ratio of >100)”. Also, the half-maximal inhibitory concentration (IC50) at TYRO3 was 100 to 1000 nM.
